Tests used:
[1] = molecular target: T1, CDK5/p35 (Homo sapiens, UniProt Q00535); experiment: Kinase activity detection (Eurofins); type: biochemical; conditions: ZY0511 1 µM, read-out: Inhibition rate
T1 construct: purchased Eurofins Pharma Discovery Services (KinaseProfiler)
Protocol: (§1) The activity of ZY0511 against 104 cancer‐related kinases was carried out by Eurofins Pharma Discovery Services (Celle Lévescault, France).

[2] = molecular target: T2, c-RAF (Homo sapiens, UniProt P04049); experiment: Kinase activity detection (Eurofins); type: biochemical; conditions: ZY0511 1 µM, read-out: Inhibition rate
T2 construct: purchased Eurofins Pharma Discovery Services (KinaseProfiler)
Protocol: as §1

[3] = molecular target: T3, IKKε (Homo sapiens, UniProt Q14164); experiment: Kinase activity detection (Eurofins); type: biochemical; conditions: ZY0511 1 µM, read-out: Activation rate
T3 construct: purchased Eurofins Pharma Discovery Services (KinaseProfiler)
Protocol: as §1

[4] = molecular target: T4, DAPK1 (Homo sapiens, UniProt P53355); experiment: Kinase activity detection (Eurofins); type: biochemical; conditions: ZY0511 1 µM, read-out: Activation rate
T4 construct: purchased Eurofins Pharma Discovery Services (KinaseProfiler)
Protocol: as §1

[5] = molecular target: T5, ZIPK (Homo sapiens, UniProt O43293); experiment: Kinase activity detection (Eurofins); type: biochemical; conditions: ZY0511 1 µM, read-out: Inhibition rate
T5 construct: purchased Eurofins Pharma Discovery Services (KinaseProfiler)
Protocol: as §1

[6] = molecular target: T6, ARK5 (Homo sapiens, UniProt O60285); experiment: Kinase activity detection (Eurofins); type: biochemical; conditions: ZY0511 1 µM
T6 construct: purchased Eurofins Pharma Discovery Services (KinaseProfiler)
Protocol: as §1

[7] = molecular target: T7, BRK (Homo sapiens, UniProt Q13882); experiment: Kinase activity detection (Eurofins); type: biochemical; conditions: ZY0511 1 µM, read-out: Inhibition rate
T7 construct: purchased Eurofins Pharma Discovery Services (KinaseProfiler)
Protocol: as §1

[8] = molecular target: T8, CK1γ3 (Homo sapiens, UniProt Q9Y6M4); experiment: Kinase activity detection (Eurofins); type: biochemical; conditions: ZY0511 1 µM, read-out: Inhibition rate
T8 construct: purchased Eurofins Pharma Discovery Services (KinaseProfiler)
Protocol: as §1

[9] = molecular target: T9, MAPK2 (Homo sapiens, UniProt P28482); experiment: Kinase activity detection (Eurofins); type: biochemical; conditions: ZY0511 1 µM, read-out: Activation rate
T9 construct: purchased Eurofins Pharma Discovery Services (KinaseProfiler)
Protocol: as §1

[10] = molecular target: T10, PDK1 (Homo sapiens, UniProt O15530); experiment: Kinase activity detection (Eurofins); type: biochemical; conditions: ZY0511 1 µM, read-out: Inhibition rate
T10 construct: purchased Eurofins Pharma Discovery Services (KinaseProfiler)
Protocol: as §1

[11] = molecular target: T11, KDR (Homo sapiens, UniProt P35968); experiment: Kinase activity detection (Eurofins); type: biochemical; conditions: ZY0511 1 µM, read-out: Inhibition rate
T11 construct: purchased Eurofins Pharma Discovery Services (KinaseProfiler)
Protocol: as §1

[12] = molecular target: T12, EGFR (Homo sapiens, UniProt P00533); experiment: Kinase activity detection (Eurofins); type: biochemical; conditions: ZY0511 1 µM, read-out: Inhibition rate
T12 construct: purchased Eurofins Pharma Discovery Services (KinaseProfiler)
Protocol: as §1

[13] = molecular target: T13, TAK1 (Homo sapiens, UniProt O43318); experiment: Kinase activity detection (Eurofins); type: biochemical; conditions: ZY0511 1 µM, read-out: Inhibition rate
T13 construct: purchased Eurofins Pharma Discovery Services
Protocol: as §1

[14] = molecular target: T14, ErbB2 (Homo sapiens, UniProt P04626); experiment: Kinase activity detection (Eurofins); type: biochemical; conditions: ZY0511 1 µM, read-out: Activation rate
T14 construct: purchased Eurofins Pharma Discovery Services (KinaseProfiler)
Protocol: as §1

[15] = molecular target: T15, Yes (Homo sapiens, UniProt P07947); experiment: Kinase activity detection (Eurofins); type: biochemical; conditions: ZY0511 1 µM, read-out: Inhibition rate
T15 construct: purchased Eurofins Pharma Discovery Services
Protocol: as §1

[16] = molecular target: T16, Ret (Homo sapiens, UniProt P07949); experiment: Kinase activity detection (Eurofins); type: biochemical; conditions: ZY0511 1 µM, read-out: Activation rate
T16 construct: purchased Eurofins Pharma Discovery Services (KinaseProfiler)
Protocol: as §1

[17] = molecular target: T17, PI3 Kinase (p120γ) (Homo sapiens, UniProt P48736); experiment: Kinase activity detection (Eurofins); type: biochemical; conditions: ZY0511 1 µM, read-out: Inhibition rate
T17 construct: purchased Eurofins Pharma Discovery Services (KinaseProfiler)
Protocol: as §1

[18] = molecular target: T18, Snk (Homo sapiens, UniProt Q9NYY3); experiment: Kinase activity detection (Eurofins); type: biochemical; conditions: ZY0511 1 µM, read-out: Inhibition rate
T18 construct: purchased Eurofins Pharma Discovery Services (KinaseProfiler)
Protocol: as §1

[19] = molecular target: T19, CK1γ2 (Homo sapiens, UniProt P78368); experiment: Kinase activity detection (Eurofins); type: biochemical; conditions: ZY0511 1 µM, read-out: Inhibition rate
T19 construct: purchased Eurofins Pharma Discovery Services
Protocol: as §1

[20] = molecular target: T20, cKit (Homo sapiens, UniProt P10721); experiment: Kinase activity detection (Eurofins); type: biochemical; conditions: ZY0511 1 µM, read-out: Activation rate
T20 construct: purchased Eurofins Pharma Discovery Services (KinaseProfiler)
Protocol: as §1

[21] = molecular target: T21, EGFR (T790M) (Homo sapiens, UniProt P00533, T790M); experiment: Kinase activity detection (Eurofins); type: biochemical; conditions: ZY0511 1 µM
T21 construct: purchased Eurofins Pharma Discovery Services (KinaseProfiler)
Protocol: as §1

[22] = molecular target: T22, CDK2/cyclinA (Homo sapiens, UniProt P24941); experiment: Kinase activity detection (Eurofins); type: biochemical; conditions: ZY0511 1 µM, read-out: Inhibition rate
T22 construct: purchased Eurofins Pharma Discovery Services
Protocol: as §1

[23] = molecular target: T23, Met (Homo sapiens, UniProt P08581); experiment: Kinase activity detection (Eurofins); type: biochemical; conditions: ZY0511 1 µM, read-out: Inhibition rate
T23 construct: purchased Eurofins Pharma Discovery Services (KinaseProfiler)
Protocol: as §1

[24] = molecular target: T24, PI3 Kinase (p110α (H1047R)/p85α) (Homo sapiens, UniProt P42336, H1047R); experiment: Kinase activity detection (Eurofins); type: biochemical; conditions: ZY0511 1 µM, read-out: Inhibition rate
T24 construct: purchased Eurofins Pharma Discovery Services (KinaseProfiler)
Protocol: as §1

[25] = molecular target: T25, PKD2 (Homo sapiens, UniProt Q9BZL6); experiment: Kinase activity detection (Eurofins); type: biochemical; conditions: ZY0511 1 µM, read-out: Inhibition rate
T25 construct: purchased Eurofins Pharma Discovery Services
Protocol: as §1

[26] = molecular target: T26, IGF-1R (Homo sapiens, UniProt P08069); experiment: Kinase activity detection (Eurofins); type: biochemical
T26 construct: purchased Eurofins Pharma Discovery Services
Protocol: as §1

[27] = molecular target: T27, PKBα (Homo sapiens, UniProt P31749); experiment: Kinase activity detection (Eurofins); type: biochemical; conditions: ZY0511 1 µM, read-out: Inhibition rate
T27 construct: purchased Eurofins Pharma Discovery Services (KinaseProfiler)
Protocol: as §1

[28] = molecular target: T28, Ros (Homo sapiens, UniProt P08922); experiment: Kinase activity detection (Eurofins); type: biochemical; conditions: ZY0511 1 µM, read-out: Inhibition rate
T28 construct: purchased Eurofins Pharma Discovery Services
Protocol: as §1

[29] = molecular target: T29, DDR2 (Homo sapiens, UniProt Q16832); experiment: Kinase activity detection (Eurofins); type: biochemical; conditions: ZY0511 1 µM, read-out: Inhibition rate
T29 construct: purchased Eurofins Pharma Discovery Services (KinaseProfiler)
Protocol: as §1

[30] = molecular target: T30, PAK1 (Homo sapiens, UniProt Q13153); experiment: Kinase activity detection (Eurofins); type: biochemical; conditions: ZY0511 1 µM, read-out: Activation rate
T30 construct: purchased Eurofins Pharma Discovery Services (KinaseProfiler)
Protocol: as §1

[31] = molecular target: T31, Abl (Homo sapiens, UniProt P00519); experiment: Kinase activity detection (Eurofins); type: biochemical; conditions: ZY0511 1 µM, read-out: Inhibition rate
T31 construct: purchased Eurofins Pharma Discovery Services
Protocol: as §1

[32] = molecular target: T32, TrkC (Homo sapiens, UniProt Q16288); experiment: Kinase activity detection (Eurofins); type: biochemical; conditions: ZY0511 1 µM, read-out: Inhibition rate
T32 construct: purchased Eurofins Pharma Discovery Services (KinaseProfiler)
Protocol: as §1

[33] = molecular target: T33, p70S6K (Homo sapiens, UniProt P23443); experiment: Kinase activity detection (Eurofins); type: biochemical; conditions: ZY0511 1 µM, read-out: Inhibition rate
T33 construct: purchased Eurofins Pharma Discovery Services
Protocol: as §1

[34] = molecular target: T34, PKCε (Homo sapiens, UniProt Q02156); experiment: Kinase activity detection (Eurofins); type: biochemical; conditions: ZY0511 1 µM, read-out: Inhibition rate
T34 construct: purchased Eurofins Pharma Discovery Services (KinaseProfiler)
Protocol: as §1

[35] = molecular target: T35, CSK (Homo sapiens, UniProt P41240); experiment: Kinase activity detection (Eurofins); type: biochemical; conditions: ZY0511 1 µM, read-out: Inhibition rate
T35 construct: purchased Eurofins Pharma Discovery Services (KinaseProfiler)
Protocol: as §1

[36] = molecular target: T36, cKit (D816H) (Homo sapiens, UniProt P10721, D816H); experiment: Kinase activity detection (Eurofins); type: biochemical; conditions: ZY0511 1 µM, read-out: Activation rate
T36 construct: purchased Eurofins Pharma Discovery Services (KinaseProfiler)
Protocol: as §1

[37] = Acute toxicity assay

T26 sequence (P08069 31-1367, species assumed): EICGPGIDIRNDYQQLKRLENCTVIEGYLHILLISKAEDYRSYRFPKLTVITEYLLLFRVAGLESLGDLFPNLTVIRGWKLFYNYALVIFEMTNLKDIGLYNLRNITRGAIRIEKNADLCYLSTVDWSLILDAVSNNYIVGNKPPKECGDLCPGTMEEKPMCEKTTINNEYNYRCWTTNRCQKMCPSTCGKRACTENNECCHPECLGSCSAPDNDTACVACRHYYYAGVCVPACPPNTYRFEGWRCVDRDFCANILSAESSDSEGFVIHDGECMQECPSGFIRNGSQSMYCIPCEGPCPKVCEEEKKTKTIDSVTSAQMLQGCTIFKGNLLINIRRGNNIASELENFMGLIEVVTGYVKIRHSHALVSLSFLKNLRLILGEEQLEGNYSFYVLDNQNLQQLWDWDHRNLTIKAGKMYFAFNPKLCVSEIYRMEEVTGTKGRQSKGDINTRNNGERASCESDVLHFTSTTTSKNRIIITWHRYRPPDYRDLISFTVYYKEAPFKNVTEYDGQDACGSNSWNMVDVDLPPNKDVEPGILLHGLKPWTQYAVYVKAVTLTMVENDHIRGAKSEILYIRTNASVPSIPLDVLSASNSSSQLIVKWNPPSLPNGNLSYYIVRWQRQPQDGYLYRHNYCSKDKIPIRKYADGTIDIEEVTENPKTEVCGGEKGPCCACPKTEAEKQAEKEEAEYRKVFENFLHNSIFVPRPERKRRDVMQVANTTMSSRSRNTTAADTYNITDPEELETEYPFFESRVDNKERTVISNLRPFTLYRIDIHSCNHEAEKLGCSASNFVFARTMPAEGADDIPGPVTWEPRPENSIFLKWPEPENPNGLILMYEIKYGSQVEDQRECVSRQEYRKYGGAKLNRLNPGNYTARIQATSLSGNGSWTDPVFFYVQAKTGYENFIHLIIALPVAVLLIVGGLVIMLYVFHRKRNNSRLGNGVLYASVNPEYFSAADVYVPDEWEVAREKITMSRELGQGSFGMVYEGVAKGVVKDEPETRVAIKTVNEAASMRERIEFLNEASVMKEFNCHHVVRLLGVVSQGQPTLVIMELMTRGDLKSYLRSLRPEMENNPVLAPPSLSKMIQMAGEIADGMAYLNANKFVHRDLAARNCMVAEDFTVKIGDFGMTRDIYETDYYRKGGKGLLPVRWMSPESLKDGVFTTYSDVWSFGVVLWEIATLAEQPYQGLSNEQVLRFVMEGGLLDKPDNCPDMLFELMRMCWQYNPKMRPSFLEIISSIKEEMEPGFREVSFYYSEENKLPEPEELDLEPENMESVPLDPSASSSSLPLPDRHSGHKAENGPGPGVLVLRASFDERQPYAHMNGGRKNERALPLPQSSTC
T17 sequence (P48736 whole entry): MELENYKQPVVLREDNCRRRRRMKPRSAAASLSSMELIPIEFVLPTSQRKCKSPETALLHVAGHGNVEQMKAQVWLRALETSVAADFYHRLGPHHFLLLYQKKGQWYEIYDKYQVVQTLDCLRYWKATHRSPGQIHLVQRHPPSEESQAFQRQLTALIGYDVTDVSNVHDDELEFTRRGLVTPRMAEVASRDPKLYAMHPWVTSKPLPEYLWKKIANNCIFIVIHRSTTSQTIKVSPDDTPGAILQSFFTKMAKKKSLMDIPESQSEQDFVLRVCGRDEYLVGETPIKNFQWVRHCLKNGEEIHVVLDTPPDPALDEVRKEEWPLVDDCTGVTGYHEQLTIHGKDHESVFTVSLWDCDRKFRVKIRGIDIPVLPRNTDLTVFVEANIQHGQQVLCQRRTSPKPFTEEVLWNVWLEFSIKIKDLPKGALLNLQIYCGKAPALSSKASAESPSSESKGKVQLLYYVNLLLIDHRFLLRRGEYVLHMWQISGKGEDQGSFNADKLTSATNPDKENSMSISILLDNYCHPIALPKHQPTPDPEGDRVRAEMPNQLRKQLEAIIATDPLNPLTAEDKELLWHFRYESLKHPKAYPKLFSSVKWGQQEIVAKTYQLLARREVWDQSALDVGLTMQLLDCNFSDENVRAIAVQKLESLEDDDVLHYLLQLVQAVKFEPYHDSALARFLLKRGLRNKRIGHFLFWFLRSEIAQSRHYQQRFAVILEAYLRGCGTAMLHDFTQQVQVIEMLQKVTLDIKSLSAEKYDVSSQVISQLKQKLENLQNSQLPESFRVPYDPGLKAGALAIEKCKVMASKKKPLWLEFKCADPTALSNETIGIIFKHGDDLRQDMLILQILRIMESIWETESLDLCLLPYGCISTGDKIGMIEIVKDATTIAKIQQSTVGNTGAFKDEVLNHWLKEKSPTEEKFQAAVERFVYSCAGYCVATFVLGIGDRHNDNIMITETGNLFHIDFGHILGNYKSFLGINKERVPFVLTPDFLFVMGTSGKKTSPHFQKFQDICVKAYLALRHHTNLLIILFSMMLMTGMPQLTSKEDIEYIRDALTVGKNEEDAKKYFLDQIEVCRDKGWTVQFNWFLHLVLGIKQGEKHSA
T2 sequence (P04049 whole entry): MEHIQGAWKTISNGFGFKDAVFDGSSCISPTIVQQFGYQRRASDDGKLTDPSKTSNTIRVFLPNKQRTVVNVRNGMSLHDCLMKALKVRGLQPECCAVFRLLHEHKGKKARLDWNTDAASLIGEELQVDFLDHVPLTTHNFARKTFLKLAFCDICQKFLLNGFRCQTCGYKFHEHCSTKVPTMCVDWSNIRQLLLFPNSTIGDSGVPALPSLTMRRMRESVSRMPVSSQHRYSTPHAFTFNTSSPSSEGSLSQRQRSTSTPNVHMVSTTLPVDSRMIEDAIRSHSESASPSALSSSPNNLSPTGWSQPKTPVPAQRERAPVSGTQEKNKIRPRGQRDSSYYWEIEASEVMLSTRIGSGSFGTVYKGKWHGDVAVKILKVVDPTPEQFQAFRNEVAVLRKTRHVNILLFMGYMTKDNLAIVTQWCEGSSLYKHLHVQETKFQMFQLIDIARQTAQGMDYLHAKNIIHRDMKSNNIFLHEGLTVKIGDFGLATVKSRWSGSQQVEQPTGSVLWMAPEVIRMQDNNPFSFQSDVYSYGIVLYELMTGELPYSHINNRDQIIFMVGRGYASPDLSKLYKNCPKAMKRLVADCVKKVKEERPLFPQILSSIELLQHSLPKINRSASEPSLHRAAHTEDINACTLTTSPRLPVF
T27 sequence (P31749 whole entry): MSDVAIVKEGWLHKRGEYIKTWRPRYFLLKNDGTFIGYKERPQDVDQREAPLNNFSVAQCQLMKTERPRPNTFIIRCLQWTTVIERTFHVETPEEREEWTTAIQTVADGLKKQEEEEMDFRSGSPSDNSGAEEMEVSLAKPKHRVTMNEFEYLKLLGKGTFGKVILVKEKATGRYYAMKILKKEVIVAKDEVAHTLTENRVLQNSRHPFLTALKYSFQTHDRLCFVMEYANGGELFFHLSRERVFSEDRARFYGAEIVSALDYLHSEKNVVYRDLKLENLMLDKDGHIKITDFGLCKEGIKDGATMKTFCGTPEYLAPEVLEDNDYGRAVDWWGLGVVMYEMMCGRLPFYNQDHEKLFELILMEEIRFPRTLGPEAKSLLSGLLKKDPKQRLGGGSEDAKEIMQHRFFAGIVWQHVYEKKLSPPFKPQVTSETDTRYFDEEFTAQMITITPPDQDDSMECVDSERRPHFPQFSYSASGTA
T14 sequence (P04626 23-1255): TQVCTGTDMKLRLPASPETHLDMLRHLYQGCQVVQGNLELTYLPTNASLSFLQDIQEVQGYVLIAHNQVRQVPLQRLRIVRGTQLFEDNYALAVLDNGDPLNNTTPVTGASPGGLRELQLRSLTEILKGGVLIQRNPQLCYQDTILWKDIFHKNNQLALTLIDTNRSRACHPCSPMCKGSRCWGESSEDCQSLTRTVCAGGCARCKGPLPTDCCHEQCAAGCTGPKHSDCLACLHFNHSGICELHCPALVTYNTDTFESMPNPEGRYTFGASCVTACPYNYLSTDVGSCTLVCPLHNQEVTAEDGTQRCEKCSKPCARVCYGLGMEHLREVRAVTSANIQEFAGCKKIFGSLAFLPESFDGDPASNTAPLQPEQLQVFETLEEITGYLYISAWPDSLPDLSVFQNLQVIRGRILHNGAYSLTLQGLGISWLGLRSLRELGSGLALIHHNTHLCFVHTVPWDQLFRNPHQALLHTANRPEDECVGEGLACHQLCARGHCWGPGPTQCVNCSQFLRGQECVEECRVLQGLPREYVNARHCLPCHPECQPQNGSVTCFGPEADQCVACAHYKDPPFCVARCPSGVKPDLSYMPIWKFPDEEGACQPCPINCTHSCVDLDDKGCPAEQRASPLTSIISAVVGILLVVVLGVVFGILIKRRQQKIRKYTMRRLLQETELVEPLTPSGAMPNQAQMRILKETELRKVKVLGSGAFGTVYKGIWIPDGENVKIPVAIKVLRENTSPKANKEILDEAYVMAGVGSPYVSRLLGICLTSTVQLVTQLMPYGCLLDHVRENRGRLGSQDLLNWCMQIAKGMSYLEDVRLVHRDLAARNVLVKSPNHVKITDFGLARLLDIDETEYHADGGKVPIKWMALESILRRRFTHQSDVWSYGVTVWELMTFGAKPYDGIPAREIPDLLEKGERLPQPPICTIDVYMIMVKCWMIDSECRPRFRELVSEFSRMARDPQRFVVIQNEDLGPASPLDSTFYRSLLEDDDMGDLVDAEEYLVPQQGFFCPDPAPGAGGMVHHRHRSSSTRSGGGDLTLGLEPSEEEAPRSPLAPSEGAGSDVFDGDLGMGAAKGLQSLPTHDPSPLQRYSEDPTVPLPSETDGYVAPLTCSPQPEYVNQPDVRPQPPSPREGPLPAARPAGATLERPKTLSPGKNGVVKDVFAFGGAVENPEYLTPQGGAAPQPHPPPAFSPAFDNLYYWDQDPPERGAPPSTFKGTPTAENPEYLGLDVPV
T13 sequence (O43318 1-303 limits assumed): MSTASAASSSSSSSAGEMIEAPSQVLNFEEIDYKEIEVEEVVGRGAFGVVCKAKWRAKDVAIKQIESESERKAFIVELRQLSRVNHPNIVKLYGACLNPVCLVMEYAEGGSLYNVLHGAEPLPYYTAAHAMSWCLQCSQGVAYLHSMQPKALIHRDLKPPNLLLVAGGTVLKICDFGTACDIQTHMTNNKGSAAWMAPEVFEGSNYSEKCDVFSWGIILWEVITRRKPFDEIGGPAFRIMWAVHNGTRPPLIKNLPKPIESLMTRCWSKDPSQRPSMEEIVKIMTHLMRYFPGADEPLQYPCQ

O=C(N/N=C1\CCc2c(Cl)ccc(O)c21)c1cccc(S(=O)(=O)N2CCOCC2)c1 [ZY0511, (E)‐N'‐(2, 3‐dihydro‐1H‐inden‐1‐ylidene) benzohydrazides]
inhibition at 1 µM [1]: 9% | inhibition at 1 µM [2]: 43% | activation at 1 µM [3]: 1% | activation at 1 µM [4]: 5% | inhibition at 1 µM [5]: 6% | Activation rate [6]: 6% | inhibition at 1 µM [7]: 4% | inhibition at 1 µM [8]: 21% | activation at 1 µM [9]: 16% | inhibition at 1 µM [10]: 8% | inhibition at 1 µM [11]: 30% | inhibition at 1 µM [12]: 7% | inhibition at 1 µM [13]: 1% | activation at 1 µM [14]: 25% | inhibition at 1 µM [15]: 0% | activation at 1 µM [16]: 15% | inhibition at 1 µM [17]: 10% | inhibition at 1 µM [18]: 4% | inhibition at 1 µM [19]: 13% | activation at 1 µM [20]: 14% | Activation rate [21]: 5% | inhibition at 1 µM [22]: 10% | inhibition at 1 µM [23]: 20% | inhibition at 1 µM [24]: 6% | inhibition at 1 µM [25]: 2% | activation at 1 µM ([26]; IGF-1R, ZY0511 1 µM, read-out: Activation rate): 185% | IC50 ([26]; IGF‐1R): > 10 µM | inhibition at 1 µM [27]: 4% | inhibition at 1 µM [28]: 11% | inhibition at 1 µM [29]: 5% | activation at 1 µM [30]: 1% | inhibition at 1 µM [31]: 13% | inhibition at 1 µM [32]: 7% | inhibition at 1 µM [33]: 11% | inhibition at 1 µM [34]: 8% | inhibition at 1 µM [35]: 4% | activation at 1 µM [36]: 2% | blood routine indexes (red blood cell, white blood cell, lymph cell) ([37]; 400 mg/kg i.p., day 14): did not change | liver and kidney function indexes (ALT, AST, creatinine) ([37]; 400 mg/kg i.p., day 14): did not change | pathology of main organs (heart, liver, spleen, lung, kidney) ([37]; 400 mg/kg i.p., day 14, H&E): No pathological abnormality | no observed adverse effect level ([37]; mice, i.p.): 400 mg/kg
